Drawing on BindingDB's records for doi:10.1111/cbdd.12379 (Quaid-I-Azam University, 2015), this text covers IC50 for eight compounds.

Chain of Urease [D459Y,K653P] (P07374 whole entry D459Y/K653P): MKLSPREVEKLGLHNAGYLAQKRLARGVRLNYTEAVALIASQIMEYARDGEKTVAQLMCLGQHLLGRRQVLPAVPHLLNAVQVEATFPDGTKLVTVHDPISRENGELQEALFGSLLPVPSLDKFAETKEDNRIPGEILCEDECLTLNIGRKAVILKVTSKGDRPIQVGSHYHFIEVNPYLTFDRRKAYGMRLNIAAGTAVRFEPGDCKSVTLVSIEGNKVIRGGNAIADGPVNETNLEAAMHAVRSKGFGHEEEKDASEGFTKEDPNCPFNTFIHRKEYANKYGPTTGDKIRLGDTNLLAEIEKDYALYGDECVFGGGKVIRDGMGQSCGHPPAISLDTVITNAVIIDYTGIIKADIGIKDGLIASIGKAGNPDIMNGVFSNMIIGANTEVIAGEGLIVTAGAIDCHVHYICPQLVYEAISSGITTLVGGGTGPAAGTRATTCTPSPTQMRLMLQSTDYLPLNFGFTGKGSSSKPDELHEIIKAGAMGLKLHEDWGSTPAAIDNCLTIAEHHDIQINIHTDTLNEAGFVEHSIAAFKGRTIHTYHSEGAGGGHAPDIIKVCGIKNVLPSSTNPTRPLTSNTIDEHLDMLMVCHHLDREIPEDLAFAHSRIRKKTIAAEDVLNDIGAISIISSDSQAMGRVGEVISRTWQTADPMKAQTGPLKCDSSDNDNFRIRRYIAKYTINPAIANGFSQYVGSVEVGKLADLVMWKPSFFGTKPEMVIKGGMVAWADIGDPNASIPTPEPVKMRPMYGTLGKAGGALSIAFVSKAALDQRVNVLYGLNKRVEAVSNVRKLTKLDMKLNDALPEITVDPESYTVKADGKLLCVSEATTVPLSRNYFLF

This assay addresses Urease [D459Y,K653P] (Canavalia ensiformis, UniProt P07374, D459Y/K653P). Description: In vitro Urease Inhibition Assay. The settings on record: pH 8.2. On the procedure:
Urease inhibition activity was determined by indophenol method. […] Initially, urease enzyme and the test compound were incubated in the assay buffer for 30 minutes (in a linear reaction range) at 37 °C, 40 µL of phenol and alkali reagents were added to stop the reaction. […] All the assays were performed in triplicate.
Regarding `NC(=S)N/N=C/Cc1ccccc1` [[(E)-(2-phenylethylidene)amino]thiourea (3j)], the IC50 worked out at 4.24 µM.
For `Cc1ccc(C/C=N/NC(N)=S)o1` [[(E)-[2-(5-methylfuran-2-yl)ethylidene]amino]thiourea (3g)] the value was 3.23 µM.
For `NC(=S)N/N=C/Cc1ccco1` [[(E)-[2-(furan-2-yl)ethylidene]amino]thiourea (3f)], the IC50 was found to be 0.58 µM.
On to `NC(=S)N/N=C/Cc1ccc2ccc3cccc4ccc1c2c34` [[(E)-[2-(pyren-1-yl)ethylidene]amino]thiourea (3m)], for which the IC50 amounted to 4.84 µM.
With `NC(=S)N/N=C/Cc1ccccn1` [[(E)-[2-(pyridin-2-yl)ethylidene]amino]thiourea (3a)] the figure was 2.65 µM.
For `NC(=S)N/N=C/Cc1cccnc1` [[(E)-[2-(pyridin-3-yl)ethylidene]amino]thiourea (3b)] the value was 2.41 µM; for `COc1cc(C/C=N/NC(N)=S)ccc1OCc1ccccc1` [[(E)-{2-[4-(benzyloxy)-3-methoxyphenyl]ethylidene}amino]thiourea (3l)], 75.1 µM; for `NC(=S)N/N=C/Cc1ccc(OCc2ccccc2)cc1` [[(E)-{2-[4-(benzyloxy)phenyl]ethylidene}amino]thiourea (3k)], 3.64 µM.
